Holding throughout (assay type): biochemical
The target in one test is PDE1B (Homo sapiens (Human), UniProt Q01064). Put plainly: PDE1 inhibition assay (PDE1B). To be noted: 15 nM tritium labelled cAMP, 1 hr at room temperature, SPA beads; read-out: PDE1B, IC50. From the text: (§1) Table 1 lists the IC50 value for inhibition of PDE1 by the compounds of the invention. […] PDE1 assays are described in the Experimental Section.
The next test concerns the target PDE1A (Homo sapiens (Human), UniProt P54750). Briefly: biochemical. To be noted: 15 nM tritium labelled cAMP, 1 hr at room temperature, SPA beads.
From the text: as §1

For the next test, the target named is PDE1C (Homo sapiens (Human), UniProt Q14123). Briefly: biochemical. To be noted: 15 nM tritium labelled cAMP, 1 hr at room temperature, SPA beads.
From the text: as §1

Chain of PDE1B (Q01064 whole entry): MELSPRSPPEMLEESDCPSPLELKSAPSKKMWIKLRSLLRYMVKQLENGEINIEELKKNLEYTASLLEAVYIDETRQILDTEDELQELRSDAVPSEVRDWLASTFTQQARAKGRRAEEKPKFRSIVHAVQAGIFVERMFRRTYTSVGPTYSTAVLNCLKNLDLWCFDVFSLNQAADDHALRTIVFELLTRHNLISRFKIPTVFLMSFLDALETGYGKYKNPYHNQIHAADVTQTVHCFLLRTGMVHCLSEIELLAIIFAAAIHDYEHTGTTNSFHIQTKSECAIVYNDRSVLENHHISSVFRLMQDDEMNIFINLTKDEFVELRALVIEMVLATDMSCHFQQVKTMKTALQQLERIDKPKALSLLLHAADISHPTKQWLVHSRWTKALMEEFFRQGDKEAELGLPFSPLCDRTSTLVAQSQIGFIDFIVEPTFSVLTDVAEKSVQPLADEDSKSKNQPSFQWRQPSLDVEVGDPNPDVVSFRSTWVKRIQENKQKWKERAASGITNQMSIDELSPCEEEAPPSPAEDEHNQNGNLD
Chain of PDE1C (Q14123 whole entry): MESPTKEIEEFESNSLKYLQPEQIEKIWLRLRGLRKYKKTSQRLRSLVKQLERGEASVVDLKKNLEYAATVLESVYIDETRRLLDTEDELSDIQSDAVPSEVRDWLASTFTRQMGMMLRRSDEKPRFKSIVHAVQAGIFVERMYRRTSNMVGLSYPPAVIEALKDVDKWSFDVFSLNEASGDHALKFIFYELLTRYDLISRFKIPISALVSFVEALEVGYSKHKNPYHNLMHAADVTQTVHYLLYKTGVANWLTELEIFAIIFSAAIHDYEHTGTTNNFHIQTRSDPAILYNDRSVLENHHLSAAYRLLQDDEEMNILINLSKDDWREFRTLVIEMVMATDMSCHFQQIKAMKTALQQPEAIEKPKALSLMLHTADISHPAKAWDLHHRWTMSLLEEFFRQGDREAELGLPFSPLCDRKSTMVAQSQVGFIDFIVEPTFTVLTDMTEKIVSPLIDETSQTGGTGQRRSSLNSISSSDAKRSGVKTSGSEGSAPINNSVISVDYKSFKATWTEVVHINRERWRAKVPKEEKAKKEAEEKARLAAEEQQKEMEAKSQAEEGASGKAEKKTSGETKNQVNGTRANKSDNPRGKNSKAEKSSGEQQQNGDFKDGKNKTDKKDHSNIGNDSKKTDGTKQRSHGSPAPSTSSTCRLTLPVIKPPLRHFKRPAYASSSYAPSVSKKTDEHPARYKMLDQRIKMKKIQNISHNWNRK
Chain of PDE1A (P54750 whole entry): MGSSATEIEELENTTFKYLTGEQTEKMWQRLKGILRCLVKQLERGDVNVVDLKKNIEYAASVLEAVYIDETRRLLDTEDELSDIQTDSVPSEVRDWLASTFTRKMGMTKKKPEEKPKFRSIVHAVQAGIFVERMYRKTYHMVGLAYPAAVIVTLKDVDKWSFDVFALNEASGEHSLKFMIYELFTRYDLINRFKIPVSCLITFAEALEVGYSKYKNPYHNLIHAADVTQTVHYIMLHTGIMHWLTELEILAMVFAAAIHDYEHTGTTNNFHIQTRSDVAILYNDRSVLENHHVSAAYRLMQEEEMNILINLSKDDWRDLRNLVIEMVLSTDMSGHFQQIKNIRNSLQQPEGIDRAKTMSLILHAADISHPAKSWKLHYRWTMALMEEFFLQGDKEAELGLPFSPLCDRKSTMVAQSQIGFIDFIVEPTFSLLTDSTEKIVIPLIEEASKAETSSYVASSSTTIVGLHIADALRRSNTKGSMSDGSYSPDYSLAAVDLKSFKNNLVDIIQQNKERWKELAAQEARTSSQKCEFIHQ

`CCOc1ncccc1-c1cc(NCc2cnn(C)c2)c2c(n1)c(C)nn2C1CC1` [Example 12, 1-cyclopropyl-5-(2-ethoxy-3-pyridyl)-3-methyl-N-[(1-methylpyrazol-4-yl)methyl]pyrazolo[4,3-b]pyridin-7-amine]: the IC50 was 60 nM at PDE1B, 200 nM against PDE1A and 690 nM against PDE1C.
Consider `CCCn1ncc2nc(-c3cccnc3OCC)cc(NCc3cnn(C)c3)c21` [Example 13, 5-(2-ethoxy-3-pyridyl)-N-[(1-methylpyrazol-4-yl)methyl]-1-propyl-pyrazolo[4,3-b]pyridin-7-amine], for which the half-maximal inhibitory concentration (IC50) on PDE1B stood at 15 nM; against PDE1A, 90 nM; at PDE1C, 340 nM.
Regarding `CCOc1ncccc1-c1cc(NCc2cnn(C)c2)c2c(cnn2C2COC2)n1` [Example 14, 5-(2-ethoxypyridin-3-yl)-N-((1-methyl-1H-pyrazol-4-yl)methyl)-1-(oxetan-3-yl)-1H-pyrazolo[4,3-b]pyridin-7-amine], the IC50 on PDE1B was found to be 38 nM; against PDE1A, 450 nM; on PDE1C, 300 nM.
On the same counts, the results for `CCOc1ncccc1-c1cc(NCc2cnn(C)c2)c2c(cnn2C)n1` [Example 16, 5-(2-ethoxypyridin-3-yl)-1-methyl-N-((1-methyl-1H-pyrazol-4-yl)methyl)-1H-pyrazolo[4,3-b]pyridin-7-amine] are 92 nM, 670 nM and 1800 nM.
On the same counts, the results for `CCOc1ncccc1-c1cc(NCc2nccn2C)c2c(cnn2C(C)C)n1` [Example 17, 5-(2-ethoxy-3-pyridyl)-1-isopropyl-N-[(1-methylimidazol-2-yl)methyl]pyrazolo[4,3-b]pyridin-7-amine] are 54 nM, 700 nM and 970 nM.
For `CCOc1ncccc1-c1cc(NCc2ccnn2C)c2c(cnn2C(C)C)n1` [Example 18, 5-(2-ethoxypyridin-3-yl)-1-isopropyl-N-((1-methyl-1H-pyrazol-5-yl)methyl)-1H-pyrazolo[4,3-b]pyridin-7-amine], in that order: 73 nM, 450 nM and 640 nM.
As for `CCOc1ncccc1-c1cc(NCc2ccn(C)n2)c2c(cnn2C(C)C)n1` [Example 19, 5-(2-ethoxypyridin-3-yl)-1-isopropyl-N-((1-methyl-1H-pyrazol-3-yl)methyl)-1H-pyrazolo[4,3-b]pyridin-7-amine], the IC50 at PDE1B turned out to be 4.6 nM; on PDE1A, 66 nM; against PDE1C, 150 nM.
For `CCOc1ncccc1-c1cc(NCc2nccs2)c2c(cnn2C(C)C)n1` [Example 20, 5-(2-ethoxy-3-pyridyl)-1-isopropyl-N-(thiazol-2-ylmethyl)pyrazolo[4,3-b]pyridin-7-amine], in that order: 37 nM, 520 nM and 600 nM.
In the case of `CCOc1ncccc1-c1cc(NCc2cn(C)cn2)c2c(cnn2C(C)C)n1` [Example 21, 5-(2-ethoxy-3-pyridyl)-1-isopropyl-N-[(1-methylimidazol-4-yl)methyl]pyrazolo[4,3-b]pyridin-7-amine], the IC50 on PDE1B was determined as 0.44 nM; against PDE1A, 8.9 nM; at PDE1C it was 29 nM.
Consider `CCOc1ncccc1-c1cc(NCc2ccncc2)c2c(cnn2C(C)C)n1` [Example 22, 5-(2-ethoxy-3-pyridyl)-1-isopropyl-N-(4-pyridylmethyl)pyrazolo[4,3-b]pyridin-7-amine], for which the figures for the IC50 on PDE1B, against PDE1A and on PDE1C were 50 nM, 250 nM and 430 nM, respectively.
Take `CCOc1ncccc1-c1cc(NCc2cccc(C)c2)c2c(cnn2C(C)C)n1` [Example 23, 5-(2-ethoxy-3-pyridyl)-1-isopropyl-N-(m-tolylmethyl)pyrazolo[4,3-b]pyridin-7-amine]: the IC50 at PDE1B amounted to 38 nM; at PDE1A it was 240 nM; at PDE1C it was 750 nM.
On to `CCOc1ncccc1-c1cc(NCc2ccc(C)cc2)c2c(cnn2C(C)C)n1` [Example 24, 5-(2-ethoxy-3-pyridyl)-1-isopropyl-N-(p-tolylmethyl)pyrazolo[4,3-b]pyridin-7-amine], for which the IC50 on PDE1B turned out to be 160 nM; at PDE1A, 380 nM; on PDE1C, 1200 nM.
`CCOc1ncccc1-c1cc(NCc2cnn(C)c2)c2c(cnn2C(C)C)n1` [Example 25, 5-(2-ethoxy-3-pyridyl)-1-isopropyl-N-[(1-methylpyrazol-4-yl)methyl]pyrazolo[4,3-b]pyridin-7-amine]: the IC50 at PDE1B came to 4.6 nM; against PDE1A, 56 nM; on PDE1C it was 150 nM.
On the same counts, the results for `CCOc1ncccc1-c1cc(NCc2cnn(C)c2)c2c(n1)c(C)nn2C1COC1` [Example 27, 5-(2-ethoxy-3-pyridyl)-3-methyl-N-[(1-methylpyrazol-4-yl)methyl]-1-(oxetan-3-yl)pyrazolo[4,3-b]pyridin-7-amine] are 6.6 nM, 94 nM and 170 nM.
On the same counts, the results for `CCOc1ncccc1-c1cc(NCc2cnn(C)c2)c2c(n1)c(C)nn2C` [Example 28, 5-(2-ethoxy-3-pyridyl)-1,3-dimethyl-N-[(1-methylpyrazol-4-yl)methyl]pyrazolo[4,3-b]pyridin-7-amine] are 85 nM, 550 nM and 1900 nM.
As for `CCOc1ncccc1-c1cc(NCc2nc(C)no2)c2c(n1)c(C)nn2C(C)C` [Example 30, 5-(2-ethoxy-3-pyridyl)-1-isopropyl-3-methyl-N-[(3-methyl-1,2,4-oxadiazol-5-yl)methyl]pyrazolo[4,3-b]pyridin-7-amine], the results for the IC50 at PDE1B, against PDE1A and against PDE1C were 1.3 nM, 15 nM and 31 nM, respectively.
`CCOc1ncccc1-c1cc(NCc2cnc(C)s2)c2c(n1)c(C)nn2C(C)C` [Example 32, 5-(2-ethoxy-3-pyridyl)-1-isopropyl-3-methyl-N-[(2-methylthiazol-5-yl)methyl]pyrazolo[4,3-b]pyridin-7-amine]: the IC50 at PDE1B is 0.14 nM; against PDE1A, 4.6 nM; at PDE1C it was 6.2 nM.
For `CCOc1ncccc1-c1cc(NCc2nnc(C)s2)c2c(n1)c(C)nn2C(C)C` [Example 33, 5-(2-ethoxy-3-pyridyl)-1-isopropyl-3-methyl-N-[(5-methyl-1,3,4-thiadiazol-2-yl)methyl]pyrazolo[4,3-b]pyridin-7-amine], in that order: 0.41 nM, 1.6 nM and 7.9 nM.
For `CCOc1ncccc1-c1cc(NCc2csc(C)c2)c2c(n1)c(C)nn2C(C)C` [Example 34, 5-(2-ethoxy-3-pyridyl)-1-isopropyl-3-methyl-N-[(5-methyl-3-thienyl)methyl]pyrazolo[4,3-b]pyridin-7-amine], in that order: 1.8 nM, 8.1 nM and 21 nM.
`CCOc1ncccc1-c1cc(NCc2cc(C)cs2)c2c(n1)c(C)nn2C(C)C` [Example 35, 5-(2-ethoxy-3-pyridyl)-1-isopropyl-3-methyl-N-[(4-methyl-2-thienyl)methyl]pyrazolo[4,3-b]pyridin-7-amine]: the results for the IC50 on PDE1B, against PDE1A and at PDE1C were 1.7 nM, 7.3 nM and 32 nM, respectively.

The IC50 is the midpoint of a concentration-inhibition curve.

These data come from US10034861B2 (priority 2016, dated 2018).
